In US20250354979A1, “DRUG EVALUATION METHOD, REAGENT, AND KIT” (FUJIFILM Corporation, priority 2023, published 2025):

How the values were obtained:
[1] = test system: human iPS cell-derived myocardial cells; assay: Heart rate of myocardial cells by MEA extracellular potential, serum-free culture medium without additive; type: cell-based; conditions: no pretreatment
Experimental: (§1) Reference Example 1: Method and results of evaluating effect on heart rate in a case where muscarinic receptor agonist (carbachol) is added to serum-free culture medium Human iPS cell-derived myocardial cells (iCell myocardial cells 2.0, manufactured by FUJIFILM Cellular Dynamics, Inc.) in a frozen state were thawed, suspended in a thawing culture medium (iCell myocardial cell thawing culture medium, manufactured by FUJIFILM Cellular Dynamics, Inc.), and then seeded at a cell density of 50,000 cells per well on a MEA plate (Cyto View MEA 48, manufactured by Axion BioSystems, Inc.). The seeding density of myocardial cells in the vicinity of the electrode was 2,736 cells/mm^2. […]
(§2) On the day of measurement, the MEA plate on which the human iPS cell-derived myocardial cells were cultured was placed in an MEA system (Maestro Pro, manufactured by Axion BioSystems, Inc.), and the extracellular potential was measured after 20 minutes (medium control, carbachol concentration: 0 μmol/L). Subsequently, 0.01 μmol/L of carbachol (manufactured by Tokyo Chemical Industry Co., Ltd.) was added to the MEA plate, and then the extracellular potential was measured after 20 minutes from the addition. Similarly, carbachol was added to give concentrations of 0.1 μmol/L, 1 μmol/L, and 10 μmol/L, and then the extracellular potential was measured at each concentration after 20 minutes from the addition. […]

[2] = test system: human iPS cell-derived myocardial cells; assay: Heart rate of myocardial cells by MEA, maintenance culture medium containing serum; type: cell-based
Source text: as §1, with “Comparative” for “Reference”, “decrease in” for “effect on”, “by” for “in a case where”, “using maintenance” for “is added to serum-free”, “2,798” for “2,736”
as §2, with “concentration.” for “concentration after 20 minutes from the addition.”

Structure (SMILES)	increase in heart rate ([1]; atropine 0.01-1 μmol/L)	increase in heart rate ([2]; atropine 0.01-1 μmol/L)	decrease in heart rate ([1]; carbachol 0.01-10 μmol/L, 20 minutes after each addition, vs medium control)	decrease in heart rate ([2]; carbachol 0.01-10 μmol/L)
CN1[C@@H]2CC[C@H]1C[C@@H](OC(=O)C(CO)c1ccccc1)C2 (stereo partly shown) [atropine]	No clear increase in heart rate	No clear increase in heart rate		
C[N+](C)(C)CCOC(N)=O [carbachol]			up to 15%	No clear decrease in heart rate
